Experiments:
Type in all cases: in vivo
rats (F344×WF)FI = experiment: Test 1: immuno-suppressive activity, local graft-versus-host (GVH) reaction in the rat; settings: Cyclosporine alone p.o. on 4 successive days
Procedure: The test is carried out employing rats (F344×WF)FI sensibilized by injection into the hind-foot of spleen cells taken from .female. Wistar-Furth (WF) rats. The test animals are divided into groups of 8. […] GVH reaction is determined by measurement of increase in lymphe node weight compared with untreated controls.

OFI mice = experiment: Test 2: immuno-suppressive activity, anti-body producing cell development in the mouse (PFC test); settings: Cyclosporine alone p.o. on 3 successive days
Procedure: The test is carried out employing .female. OFI mice sensibilized by i.v. administration of ca. 1×10^8 sheep erythrocytes (SRBC). The test animals are divided into groups of 5.
The spleens are removed on day 4 and a cell suspension prepared and incubated with fresh SRBC antigen on soft agar. After addition of compliment, which, together with anti-body secreted from the sensibilized cells, dissolves SRBC in the vicinity of secreting cells, plaque development is counted and compared with results obtained employing untreated control mice.

OFA rats = experiment: Test 3: anti-inflammatory activity, adjuvant arthritis in the rat; settings: Cyclosporine alone p.o./day for 14 days
Procedure: For this test adjuvant arthritis is induced in accordance with the method described by Pearson and Wood, "Arthr. Rheum." 2, 440 (1959). OFA .female. rats are employed as test animals. […] Administration is effected in all cases on successive days for 14 days starting on day 1 after antigen administration and inflammatory reaction is determined on day 19 after antigen administration.

Substance: Cyclosporine
- ED50 for Cyclosporine, GVH reaction (increase in lymph node weight) (rats (F344×WF)FI): 27 mg/kg
- ED50 for Cyclosporine, PFC test (plaque development) (OFI mice): 40 mg/kg
- ED50 for Cyclosporine, adjuvant arthritis (inflammatory reaction day 19) (OFA rats): 4.2 mg/kg

— patent publication US4681754A, “Counteracting cyclosporin organ toxicity” (Sandoz Ltd., priority 1984, dated 1987)
